Data set [1] concerns the target T1, human NET (Homo sapiens, UniProt P23975). Description: Transporter-mediated noradrenaline release from preloaded HEK 293 cells. Conditions: 100 μM, 45 min, compared with nisoxetine (negative control). Format: cell-based.
The target in data set [2] is T2, human SERT (Homo sapiens, UniProt P31645). In words: Transporter-mediated 5-HT release from preloaded HEK 293 cells. Format: cell-based. Conditions: 100 μM, 15 min, compared with citalopram (negative control).
In the next data set the target is human DAT (Homo sapiens, UniProt Q01959). In words: cell-based.
Data set [3] concerns the target T1, human NET. Description: cell-based. Format: cell-based.
For data set [4], the target named is T2, human SERT. In words: cell-based.
The conditions of data set [5]: human.
The conditions of data set [6]: human. The source holds these as a separate data set.
For data set [7] the following is noted: mouse; cited from earlier work.
The next data set has as its target 5‐HT2A receptor (Homo sapiens, UniProt P28223). In words: biochemical. Format: binding.
For data set [8] the following is noted: human, in vivo.
A further data set deals with T3, 5‐HT1A receptor (Homo sapiens, UniProt P08908).
T3 sequence (P08908 1-422): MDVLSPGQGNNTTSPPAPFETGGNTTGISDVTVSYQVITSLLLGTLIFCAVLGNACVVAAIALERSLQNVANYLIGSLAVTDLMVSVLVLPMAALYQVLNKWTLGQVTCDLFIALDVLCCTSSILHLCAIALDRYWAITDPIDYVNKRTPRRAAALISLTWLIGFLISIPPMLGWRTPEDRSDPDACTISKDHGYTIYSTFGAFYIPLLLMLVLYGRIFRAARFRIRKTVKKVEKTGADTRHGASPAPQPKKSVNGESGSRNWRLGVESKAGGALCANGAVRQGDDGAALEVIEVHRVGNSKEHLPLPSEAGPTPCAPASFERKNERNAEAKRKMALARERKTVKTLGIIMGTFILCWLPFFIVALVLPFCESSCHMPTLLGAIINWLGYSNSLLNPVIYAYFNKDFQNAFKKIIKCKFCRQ
In words: biochemical. Format: binding.

For data set [9] the following is noted: human, in vivo. The source holds these as a separate data set.
For data set [10] the following is noted: in vivo; cited from earlier work.
In a further data set the target is T4, 5‐HT2C receptor (Homo sapiens, UniProt P28335).
T4 sequence (P28335 33-458): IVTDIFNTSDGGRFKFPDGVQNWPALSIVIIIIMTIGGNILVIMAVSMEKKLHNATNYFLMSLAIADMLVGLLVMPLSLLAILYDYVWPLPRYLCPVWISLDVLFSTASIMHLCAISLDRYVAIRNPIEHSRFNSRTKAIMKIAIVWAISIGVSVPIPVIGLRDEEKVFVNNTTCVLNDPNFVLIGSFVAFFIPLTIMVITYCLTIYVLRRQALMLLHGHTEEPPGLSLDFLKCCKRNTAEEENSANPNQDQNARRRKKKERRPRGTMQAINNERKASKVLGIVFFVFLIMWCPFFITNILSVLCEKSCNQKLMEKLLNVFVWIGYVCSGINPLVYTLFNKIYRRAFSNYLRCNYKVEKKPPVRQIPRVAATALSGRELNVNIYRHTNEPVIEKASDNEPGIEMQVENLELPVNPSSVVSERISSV
In words: biochemical. Format: binding.

This is an account of results in publication PMC5773950 (British Journal of Pharmacology, 2018).

By IC50 is commonly meant the concentration needed to halve the response being measured. Read a high IC50 as weaker potency. By Ki is commonly meant the equilibrium dissociation constant of an inhibitor or competing ligand from its target. Higher therefore signals weaker binding.

The structures appear in SMILES notation. Where two headings read alike, the source gives them in different places. Marks after values point to notes of the source that are not given here.

T1 sequence (P23975 whole entry): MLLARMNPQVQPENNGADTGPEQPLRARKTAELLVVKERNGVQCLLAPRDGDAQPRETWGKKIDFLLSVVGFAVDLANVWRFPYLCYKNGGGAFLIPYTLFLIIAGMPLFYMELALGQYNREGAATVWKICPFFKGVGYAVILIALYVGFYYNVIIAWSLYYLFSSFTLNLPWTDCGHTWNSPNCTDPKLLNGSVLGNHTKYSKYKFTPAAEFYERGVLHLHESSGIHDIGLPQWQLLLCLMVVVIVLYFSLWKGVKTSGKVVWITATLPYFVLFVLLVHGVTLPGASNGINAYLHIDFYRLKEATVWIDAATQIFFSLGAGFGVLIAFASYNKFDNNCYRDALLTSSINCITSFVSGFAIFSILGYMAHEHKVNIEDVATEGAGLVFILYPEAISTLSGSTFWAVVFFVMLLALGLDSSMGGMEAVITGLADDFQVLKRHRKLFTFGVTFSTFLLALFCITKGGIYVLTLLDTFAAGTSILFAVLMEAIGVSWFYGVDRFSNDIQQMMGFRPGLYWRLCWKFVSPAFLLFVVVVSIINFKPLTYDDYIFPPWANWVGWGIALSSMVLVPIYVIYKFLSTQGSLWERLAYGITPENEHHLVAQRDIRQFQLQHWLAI
T2 sequence (P31645 whole entry): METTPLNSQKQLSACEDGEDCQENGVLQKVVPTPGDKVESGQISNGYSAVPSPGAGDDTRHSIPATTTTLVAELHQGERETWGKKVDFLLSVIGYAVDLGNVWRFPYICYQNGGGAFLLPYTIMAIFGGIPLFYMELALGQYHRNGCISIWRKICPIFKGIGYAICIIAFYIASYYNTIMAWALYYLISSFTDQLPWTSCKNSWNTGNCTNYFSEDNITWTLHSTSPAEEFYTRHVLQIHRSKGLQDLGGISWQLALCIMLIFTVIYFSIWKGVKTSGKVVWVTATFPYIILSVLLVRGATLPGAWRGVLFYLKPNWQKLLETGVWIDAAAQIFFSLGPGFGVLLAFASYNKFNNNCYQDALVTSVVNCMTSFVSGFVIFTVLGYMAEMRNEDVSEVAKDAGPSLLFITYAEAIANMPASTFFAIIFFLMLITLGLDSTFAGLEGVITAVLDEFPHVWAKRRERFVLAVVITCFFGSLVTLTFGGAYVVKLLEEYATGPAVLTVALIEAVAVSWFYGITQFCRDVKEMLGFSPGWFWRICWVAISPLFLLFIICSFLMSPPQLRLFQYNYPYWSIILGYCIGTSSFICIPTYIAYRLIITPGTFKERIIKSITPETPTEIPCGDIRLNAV
Sequence of human DAT (Q01959 whole entry): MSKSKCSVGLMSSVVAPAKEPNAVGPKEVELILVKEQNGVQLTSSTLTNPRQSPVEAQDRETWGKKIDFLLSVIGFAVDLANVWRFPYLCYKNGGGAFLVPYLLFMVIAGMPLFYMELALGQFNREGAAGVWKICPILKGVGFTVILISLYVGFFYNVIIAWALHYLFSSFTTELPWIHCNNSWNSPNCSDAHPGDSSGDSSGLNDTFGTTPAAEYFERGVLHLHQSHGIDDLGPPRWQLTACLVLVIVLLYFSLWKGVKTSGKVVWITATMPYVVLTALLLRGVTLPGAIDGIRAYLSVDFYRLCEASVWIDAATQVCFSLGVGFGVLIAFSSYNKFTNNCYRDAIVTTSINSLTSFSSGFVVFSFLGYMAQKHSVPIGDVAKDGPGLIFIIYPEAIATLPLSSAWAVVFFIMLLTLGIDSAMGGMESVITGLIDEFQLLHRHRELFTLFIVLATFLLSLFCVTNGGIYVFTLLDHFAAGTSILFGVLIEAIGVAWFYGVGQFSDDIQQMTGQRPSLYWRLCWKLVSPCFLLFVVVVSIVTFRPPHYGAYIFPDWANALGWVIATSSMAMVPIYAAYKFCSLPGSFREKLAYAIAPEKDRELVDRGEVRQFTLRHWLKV
Sequence of 5‐HT2A receptor (P28223 whole entry): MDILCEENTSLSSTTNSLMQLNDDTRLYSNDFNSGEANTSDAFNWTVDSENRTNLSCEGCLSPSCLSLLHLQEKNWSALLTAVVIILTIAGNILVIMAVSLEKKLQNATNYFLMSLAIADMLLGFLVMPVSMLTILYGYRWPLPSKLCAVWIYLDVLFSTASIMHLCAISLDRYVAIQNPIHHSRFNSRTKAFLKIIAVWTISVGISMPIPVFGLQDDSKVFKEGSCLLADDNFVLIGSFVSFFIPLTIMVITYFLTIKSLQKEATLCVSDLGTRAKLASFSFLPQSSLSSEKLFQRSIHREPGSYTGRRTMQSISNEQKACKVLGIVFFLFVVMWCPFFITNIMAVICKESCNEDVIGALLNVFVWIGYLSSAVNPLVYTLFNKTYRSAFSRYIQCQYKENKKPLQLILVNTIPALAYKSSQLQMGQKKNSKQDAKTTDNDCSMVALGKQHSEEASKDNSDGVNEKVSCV

As to `CNC(C)Cc1ccc2c(c1)OCO2` (stereo not drawn) [MDMA, 3,4‐Methylenedioxymethamphetamine], the Transporter-mediated noradrenaline release entry at human NET [1] is “induced significantly greater 5‐HT and noradrenaline release”. For the same compound, the “Transporter-mediated 5-HT release” value on human SERT [2] is “induced significantly greater 5‐HT and noradrenaline release”.
As to `COc1ccc2c3c1O[C@H]1C(=O)CC[C@@]4(O)[C@@H](C2)N(C)CC[C@]314` [Oxycodone], the half-maximal inhibitory concentration (IC50) at human DAT, at human NET [3], on human SERT [4] and against human SERT [4] (SERT inhibition in vitro IC50) was more than 100 µM throughout. In data set [5], the “WHO database: cases of serotonin syndrome, only suspected cause” value was 2. In data set [5], the “WHO database: cases of serotonin syndrome, only suspected cause or among others” value is 101. Also, the “Medline database: number of published cases of serotonin syndrome” value in [6] came out at 13. In addition, the “fu,plasma” value in data set [7] is 0.6. For the same compound, the Ki at 5‐HT2A receptor was more than 13 µM; at 5‐HT1A receptor, more than 17 µM. Also, the “Cu,plasma” value in data set [8] was 0.2 µM.
Turning to `CC[C@@H](c1cccc(O)c1)[C@@H](C)CN(C)C` [Tapentadol], the figures for the IC50 at human DAT, on human NET [3] and against human SERT [4] were 78 µM, 1.3 µM and 3.3 µM, respectively. In addition, the “Cu,brain” value in data set [9] is recorded as 0.2–3.5 ^l μM. In addition, the “fold more potent inhibitor of the NET versus SERT” value at human NET [3] came to 2.6 fold. In addition, the “Ctotal,plasma” value in data set [10] is 0.1 to 1.9 µM. Further, the “SERT/NET ratio (95% CI)” value on human SERT [4] is given as 0.39 (0.21–0.70). Also, in data set [5], the “WHO database: cases of serotonin syndrome, only suspected cause” value worked out at 42. Moreover, in data set [5], the “WHO database: cases of serotonin syndrome, only suspected cause or among others” value came to 115. In addition, the “Medline database: number of published cases of serotonin syndrome” value in [6] was 1. In addition, the Ki at 5‐HT2C receptor was 12 ± 3.2 µM; at 5‐HT2A receptor, 6.3 ± 0.2 µM; on 5‐HT1A receptor, more than 17 µM. For the same compound, in [8], the “Cu,plasma” value lay within 0.1 to 1.5 µM.
